Read-outs that look alike come from different tables or passages of the source.
Assays:
ARK5/NUAK1 [1] = target: T1, ARK5/NUAK1 (Homo sapiens, UniProt O60285); details: cited from earlier work
T1 construct: purchased Reaction Biology Corp
T1 sequence (O60285 1-661): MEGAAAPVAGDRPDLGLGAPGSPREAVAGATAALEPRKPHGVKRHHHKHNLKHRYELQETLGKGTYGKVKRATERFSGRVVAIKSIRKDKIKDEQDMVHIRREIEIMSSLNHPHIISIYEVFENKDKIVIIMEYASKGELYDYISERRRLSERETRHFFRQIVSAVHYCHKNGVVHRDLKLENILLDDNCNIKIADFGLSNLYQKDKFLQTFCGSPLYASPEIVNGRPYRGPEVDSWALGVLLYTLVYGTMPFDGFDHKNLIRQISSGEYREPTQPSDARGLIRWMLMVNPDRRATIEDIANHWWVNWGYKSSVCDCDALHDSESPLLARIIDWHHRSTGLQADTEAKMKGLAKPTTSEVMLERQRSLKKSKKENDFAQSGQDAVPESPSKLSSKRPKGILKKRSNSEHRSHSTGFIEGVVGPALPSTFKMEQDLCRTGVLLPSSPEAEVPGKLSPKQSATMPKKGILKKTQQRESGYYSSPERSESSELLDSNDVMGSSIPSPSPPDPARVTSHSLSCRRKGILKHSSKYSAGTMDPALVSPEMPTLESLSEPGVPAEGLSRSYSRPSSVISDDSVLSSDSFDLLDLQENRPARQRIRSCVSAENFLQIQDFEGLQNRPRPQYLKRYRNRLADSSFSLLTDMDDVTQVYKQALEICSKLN

JNK2 [2] = target: T2, JNK2 (Homo sapiens, UniProt P45984); details: cited from earlier work
T2 construct: purchased Reaction Biology Corp
T2 sequence (P45984 whole entry): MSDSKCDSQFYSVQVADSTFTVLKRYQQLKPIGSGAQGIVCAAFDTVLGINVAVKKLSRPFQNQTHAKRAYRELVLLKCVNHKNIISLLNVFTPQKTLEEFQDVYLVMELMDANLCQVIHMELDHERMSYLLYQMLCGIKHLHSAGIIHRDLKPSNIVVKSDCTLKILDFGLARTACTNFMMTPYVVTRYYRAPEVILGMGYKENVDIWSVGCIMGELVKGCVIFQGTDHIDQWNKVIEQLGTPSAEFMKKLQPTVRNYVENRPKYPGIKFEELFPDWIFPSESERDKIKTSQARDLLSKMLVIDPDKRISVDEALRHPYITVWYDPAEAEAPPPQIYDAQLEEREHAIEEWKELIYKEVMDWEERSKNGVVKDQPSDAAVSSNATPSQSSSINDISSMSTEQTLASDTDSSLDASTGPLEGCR

P38b/MAPK11 = target: T3, P38b/MAPK11 (Homo sapiens, UniProt Q15759); details: cited from earlier work
T3 construct: purchased Reaction Biology Corp

EIF2AK2 = target: T4, EIF2AK2 (Homo sapiens, UniProt P19525); assay: Kinase panel assay (radiolabelled); type: biochemical; details: 30 μM compound, ATP 10 μM, duplicates Data 1/Data 2
T4 construct: purchased Reaction Biology Corp
T4 sequence (P19525 whole entry): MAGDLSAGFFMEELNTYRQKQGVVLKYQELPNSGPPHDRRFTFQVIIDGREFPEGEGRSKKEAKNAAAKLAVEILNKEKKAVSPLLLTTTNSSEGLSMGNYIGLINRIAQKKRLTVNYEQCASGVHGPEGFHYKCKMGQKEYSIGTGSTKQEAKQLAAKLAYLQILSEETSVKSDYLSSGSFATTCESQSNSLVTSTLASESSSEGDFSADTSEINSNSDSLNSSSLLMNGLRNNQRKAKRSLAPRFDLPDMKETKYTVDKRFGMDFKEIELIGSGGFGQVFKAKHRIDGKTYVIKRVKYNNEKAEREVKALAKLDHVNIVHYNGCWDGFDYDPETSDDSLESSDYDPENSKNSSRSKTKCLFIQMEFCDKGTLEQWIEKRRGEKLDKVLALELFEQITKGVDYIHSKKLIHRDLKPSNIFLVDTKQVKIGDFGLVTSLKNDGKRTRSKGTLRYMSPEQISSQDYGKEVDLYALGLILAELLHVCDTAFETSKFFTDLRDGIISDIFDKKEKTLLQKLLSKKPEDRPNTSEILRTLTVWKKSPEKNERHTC

PI3K (p110a(E545K)/p85a) = target: T5, PI3K (p110a(E545K)/p85a) (Homo sapiens, UniProt P42336, E545K); assay: Kinase panel assay (lipid kinase); type: biochemical; details: 30 μM compound, ATP 10 μM, duplicates Data 1/Data 2
T5 construct: purchased Reaction Biology Corp

AMPK(A2/B2/G3) [3] = target: T6, AMPK(A2/B2/G3) (Homo sapiens, UniProt O43741+P54646+Q9UGI9); assay: Kinase panel assay (radiolabelled); type: biochemical; details: 30 μM compound, ATP 10 μM; duplicates Data 1/Data 2; read-out: % Enzyme Activity (relative to DMSO controls)
T6 construct: purchased Reaction Biology Corp

AMPK(A2/B2/G3) [4] = target: T7, AMPK(A2/B2/G3) (Homo sapiens, UniProt P54646); assay: Kinase panel assay (radiolabelled); type: biochemical; details: 30 μM compound, ATP 10 μM; duplicates Data 1/Data 2
T7 construct: purchased Reaction Biology Corp

STK25/YSK1 = target: T8, STK25/YSK1 (Homo sapiens, UniProt O00506); assay: Kinase panel assay (radiolabelled); type: biochemical; details: ATP 10 μM
T8 construct: purchased Reaction Biology Corp
T8 sequence (O00506 whole entry): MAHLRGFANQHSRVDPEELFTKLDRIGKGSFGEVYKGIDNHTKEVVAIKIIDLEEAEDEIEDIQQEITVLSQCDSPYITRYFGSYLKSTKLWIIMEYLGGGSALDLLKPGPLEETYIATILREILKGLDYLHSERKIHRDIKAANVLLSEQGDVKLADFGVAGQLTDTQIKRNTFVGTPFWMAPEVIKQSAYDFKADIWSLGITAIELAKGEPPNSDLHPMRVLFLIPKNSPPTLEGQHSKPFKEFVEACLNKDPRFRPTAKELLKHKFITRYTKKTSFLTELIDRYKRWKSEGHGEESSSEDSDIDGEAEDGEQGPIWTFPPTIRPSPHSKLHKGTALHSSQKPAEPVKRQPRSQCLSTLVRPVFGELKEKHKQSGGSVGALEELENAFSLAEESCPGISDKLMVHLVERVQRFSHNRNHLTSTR

ARK5/NUAK1 [5] = target: T1, ARK5/NUAK1; assay: Kinase panel assay (radiolabelled); type: biochemical; details: ATP 10 μM
TRKA (G667C) = target: T9, TRKA (G667C) (Homo sapiens, UniProt P04629, G667C); assay: Kinase panel assay (radiolabelled); type: biochemical; details: 30 μM compound, ATP 10 μM, duplicates Data 1/Data 2
T9 construct: purchased Reaction Biology Corp

JNK3 = target: T10, JNK3 (Homo sapiens, UniProt P53779); assay: Kinase panel assay (radiolabelled); type: biochemical; details: ATP 10 μM
T10 construct: purchased Reaction Biology Corp
T10 sequence (P53779 whole entry): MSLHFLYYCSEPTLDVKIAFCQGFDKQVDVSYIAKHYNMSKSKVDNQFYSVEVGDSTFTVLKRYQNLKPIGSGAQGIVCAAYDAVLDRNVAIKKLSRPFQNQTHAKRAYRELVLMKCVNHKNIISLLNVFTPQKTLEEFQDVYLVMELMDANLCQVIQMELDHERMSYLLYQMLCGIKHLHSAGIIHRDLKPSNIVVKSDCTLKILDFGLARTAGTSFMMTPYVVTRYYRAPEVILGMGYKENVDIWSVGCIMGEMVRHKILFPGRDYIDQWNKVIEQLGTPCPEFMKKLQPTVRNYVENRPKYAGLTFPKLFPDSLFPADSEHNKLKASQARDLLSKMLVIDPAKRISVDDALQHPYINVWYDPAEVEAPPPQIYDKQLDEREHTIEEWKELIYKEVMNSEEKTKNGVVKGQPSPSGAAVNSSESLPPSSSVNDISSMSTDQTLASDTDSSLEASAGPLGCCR

PI3Kb (p110b/p85a) = target: T11, PI3Kb (p110b/p85a) (Homo sapiens, UniProt P42338); assay: Kinase panel assay (lipid kinase); type: biochemical; details: 30 μM compound, ATP 10 μM, duplicates Data 1/Data 2
T11 construct: purchased Reaction Biology Corp

CDK2/cyclin O = target: T12, CDK2/cyclin O (Homo sapiens, UniProt P24941); assay: Kinase panel assay (radiolabelled); type: biochemical; details: ATP 10 μM
T12 construct: purchased Reaction Biology Corp

TRKC = target: T13, TRKC (Homo sapiens, UniProt Q16288); assay: Kinase panel assay (radiolabelled); type: biochemical; details: ATP 10 μM
T13 construct: purchased Reaction Biology Corp
T13 sequence (Q16288 32-839): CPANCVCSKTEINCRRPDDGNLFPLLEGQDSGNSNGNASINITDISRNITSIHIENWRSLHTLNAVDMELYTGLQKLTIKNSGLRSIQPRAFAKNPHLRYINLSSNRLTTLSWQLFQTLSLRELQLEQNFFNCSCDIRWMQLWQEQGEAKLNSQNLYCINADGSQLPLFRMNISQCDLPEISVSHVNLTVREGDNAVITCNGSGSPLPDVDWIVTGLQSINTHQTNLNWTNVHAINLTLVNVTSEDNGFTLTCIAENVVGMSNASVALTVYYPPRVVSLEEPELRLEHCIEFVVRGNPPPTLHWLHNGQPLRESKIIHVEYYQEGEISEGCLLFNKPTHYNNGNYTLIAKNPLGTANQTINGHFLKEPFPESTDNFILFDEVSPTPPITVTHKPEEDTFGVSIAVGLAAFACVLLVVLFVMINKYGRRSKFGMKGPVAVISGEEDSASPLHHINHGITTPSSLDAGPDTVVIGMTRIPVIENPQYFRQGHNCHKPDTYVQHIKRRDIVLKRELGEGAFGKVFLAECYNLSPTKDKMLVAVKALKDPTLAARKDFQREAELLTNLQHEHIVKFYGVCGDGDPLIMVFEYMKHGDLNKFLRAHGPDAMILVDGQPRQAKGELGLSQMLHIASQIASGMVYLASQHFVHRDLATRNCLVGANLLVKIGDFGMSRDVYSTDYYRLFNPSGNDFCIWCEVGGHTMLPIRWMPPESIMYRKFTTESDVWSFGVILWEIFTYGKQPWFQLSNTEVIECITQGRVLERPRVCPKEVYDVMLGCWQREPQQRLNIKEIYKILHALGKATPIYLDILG

PKCa = target: T14, PKCa (Homo sapiens, UniProt P17252); assay: Kinase panel assay (radiolabelled); type: biochemical; details: ATP 10 μM
T14 construct: purchased Reaction Biology Corp

TRKA-TPR = TRKA-TPR (Homo sapiens, UniProt P04629); assay: biochemical; details: 30 μM compound, ATP 10 μM, duplicates Data 1/Data 2
AMPK(A1/B1/G1) [6] = target: T15, AMPK(A1/B1/G1) (Homo sapiens, UniProt Q13131); assay: Kinase panel assay (radiolabelled); type: biochemical; details: 30 μM compound, ATP 10 μM; duplicates Data 1/Data 2
T15 construct: purchased Reaction Biology Corp

AMPK(A1/B1/G1) [7] = target: T16, AMPK(A1/B1/G1) (Homo sapiens, UniProt P54619+Q13131+Q9Y478); assay: Kinase panel assay (radiolabelled); type: biochemical; details: 30 μM compound, ATP 10 μM; duplicates Data 1/Data 2; read-out: % Enzyme Activity (relative to DMSO controls)
T16 construct: purchased Reaction Biology Corp

TRKA-TPM3 = TRKA-TPM3 (Homo sapiens, UniProt P04629); assay: Kinase panel assay (radiolabelled); type: biochemical; details: 30 μM compound, ATP 10 μM, duplicates Data 1/Data 2
TRKB = target: T17, TRKB (Homo sapiens, UniProt Q16620); assay: Kinase panel assay (radiolabelled); type: biochemical; details: ATP 10 μM
T17 construct: purchased Reaction Biology Corp
T17 sequence (Q16620 32-822): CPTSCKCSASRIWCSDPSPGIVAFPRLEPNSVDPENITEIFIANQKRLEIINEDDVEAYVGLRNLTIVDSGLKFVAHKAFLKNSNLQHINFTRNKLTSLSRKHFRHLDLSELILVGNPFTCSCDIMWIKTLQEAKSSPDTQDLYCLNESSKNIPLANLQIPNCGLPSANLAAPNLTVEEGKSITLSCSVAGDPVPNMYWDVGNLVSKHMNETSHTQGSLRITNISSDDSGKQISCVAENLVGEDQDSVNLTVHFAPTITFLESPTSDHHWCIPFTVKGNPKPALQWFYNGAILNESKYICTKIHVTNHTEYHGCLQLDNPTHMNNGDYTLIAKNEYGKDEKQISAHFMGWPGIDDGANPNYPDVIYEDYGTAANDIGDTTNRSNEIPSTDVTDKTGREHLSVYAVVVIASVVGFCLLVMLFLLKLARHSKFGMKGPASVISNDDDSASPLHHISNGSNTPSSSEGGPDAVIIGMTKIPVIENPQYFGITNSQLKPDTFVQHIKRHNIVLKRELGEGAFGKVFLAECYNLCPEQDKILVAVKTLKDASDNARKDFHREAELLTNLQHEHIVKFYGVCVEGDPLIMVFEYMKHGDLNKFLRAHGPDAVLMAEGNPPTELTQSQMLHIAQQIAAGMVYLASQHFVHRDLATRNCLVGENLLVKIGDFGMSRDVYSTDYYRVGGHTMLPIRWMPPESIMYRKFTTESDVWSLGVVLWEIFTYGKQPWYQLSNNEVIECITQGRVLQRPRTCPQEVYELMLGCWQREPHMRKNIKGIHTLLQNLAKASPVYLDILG

AMPK(A2/B1/G1) [8] = target: T18, AMPK(A2/B1/G1) (Homo sapiens, UniProt P54646); assay: Kinase panel assay (radiolabelled); type: biochemical; details: 30 μM compound, ATP 10 μM; duplicates Data 1/Data 2
T18 construct: purchased Reaction Biology Corp

AMPK(A2/B1/G1) [9] = target: T19, AMPK(A2/B1/G1) (Homo sapiens, UniProt P54619+P54646+Q9Y478); assay: Kinase panel assay (radiolabelled); type: biochemical; details: 30 μM compound, ATP 10 μM; duplicates Data 1/Data 2; read-out: % Enzyme Activity (relative to DMSO controls)
T19 construct: purchased Reaction Biology Corp

EIF2AK3 = target: T20, EIF2AK3 (Homo sapiens, UniProt Q9NZJ5); assay: Kinase panel assay (radiolabelled); type: biochemical; details: 30 μM compound, ATP 10 μM, duplicates Data 1/Data 2
T20 construct: purchased Reaction Biology Corp

PI3K (p110a(E542K)/p85a) = target: T21, PI3K (p110a(E542K)/p85a) (Homo sapiens, UniProt P42336, E542K); assay: Kinase panel assay (lipid kinase); type: biochemical; details: 30 μM compound, ATP 10 μM, duplicates Data 1/Data 2
T21 construct: purchased Reaction Biology Corp

JNK2 [10] = target: T2, JNK2; assay: Kinase panel assay (radiolabelled); type: biochemical; details: ATP 10 μM
CDK3/cyclin E = target: T22, CDK3/cyclin E (Homo sapiens, UniProt Q00526); assay: Kinase panel assay (radiolabelled); type: biochemical; details: ATP 10 μM
T22 construct: purchased Reaction Biology Corp
T22 sequence (Q00526 whole entry): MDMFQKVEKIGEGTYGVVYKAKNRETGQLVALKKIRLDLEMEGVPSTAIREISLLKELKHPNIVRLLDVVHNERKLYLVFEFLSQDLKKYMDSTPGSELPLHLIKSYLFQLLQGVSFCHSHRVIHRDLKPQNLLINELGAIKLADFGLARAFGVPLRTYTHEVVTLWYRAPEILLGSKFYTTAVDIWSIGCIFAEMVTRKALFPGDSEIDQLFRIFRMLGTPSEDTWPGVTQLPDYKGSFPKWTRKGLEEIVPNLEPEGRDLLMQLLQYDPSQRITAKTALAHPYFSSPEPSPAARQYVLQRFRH
T22 sequence (P24864 whole entry partner): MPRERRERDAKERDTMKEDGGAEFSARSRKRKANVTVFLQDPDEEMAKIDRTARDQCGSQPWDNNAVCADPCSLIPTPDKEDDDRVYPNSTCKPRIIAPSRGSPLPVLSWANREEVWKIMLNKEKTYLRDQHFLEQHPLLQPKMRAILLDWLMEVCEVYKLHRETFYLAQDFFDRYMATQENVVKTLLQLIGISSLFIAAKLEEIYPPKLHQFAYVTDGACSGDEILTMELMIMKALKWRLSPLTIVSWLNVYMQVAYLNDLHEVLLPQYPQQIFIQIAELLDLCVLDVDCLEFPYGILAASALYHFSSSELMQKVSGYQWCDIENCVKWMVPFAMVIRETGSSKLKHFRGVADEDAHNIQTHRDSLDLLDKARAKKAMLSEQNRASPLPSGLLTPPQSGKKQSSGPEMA

[11] = read-out: % Enzyme Activity (relative to DMSO controls)
[12] = 30 μM compound, duplicates Data 1/Data 2
[13] = 30 μM compound, duplicates Data 1/Data 2, read-out: % Enzyme Activity (relative to DMSO controls)
[14] = 30 μM, average ± SD, read-out: % Residual Activity at 30 μM

O=C1C=CC2(C=C1)OCC(Cc1cc(C(F)(F)F)cc(C(F)(F)F)c1)C(=O)N2c1ccccc1 (racemic) [1c]
% Residual Activity at 30 μM (ARK5/NUAK1 [1]): 70.8 ± 0.1% | % Residual Activity at 30 μM (JNK2 [2]): 58.3 ± 0.7% | % Residual Activity at 30 μM (P38b/MAPK11): 87.0 ± 1.1%

O=C1C=CC2(C=C1)OCC(Cc1cn(-c3cccc(Cl)c3)nn1)C(=O)N2c1ccccc1 (stereo not shown) [2d, 3-((1-(3-Chlorophenyl)-1H-1,2,3-triazol-4-yl)methyl)-5-phenyl-1-oxa-5-azaspiro[5.5]undeca-7,10-diene-4,9-dione]
% Enzyme Activity (relative to DMSO controls) (EIF2AK2): 100.73% | remaining activity at 30 µM (EIF2AK2; [11]): 101% | % Enzyme Activity (relative to DMSO controls) (PI3K (p110a(E545K)/p85a)): 206.92% | remaining activity at 30 µM (PI3K (p110a(E545K)/p85a); [11]): 206% | remaining activity at 30 µM (AMPK(A2/B2/G3) [3]): 95.8% | % Enzyme Activity (relative to DMSO controls) (AMPK(A2/B2/G3) [4]): 88.96% | % Enzyme Activity (relative to DMSO controls) (STK25/YSK1; [12]): 61.07% | remaining activity at 30 µM (STK25/YSK1; [13]): 63.3% | remaining activity at 30 µM (STK25/YSK1; [14]): 62.2 ± 1.6% | % Enzyme Activity (relative to DMSO controls) (ARK5/NUAK1 [5]; [12]): 84.16% | remaining activity at 30 µM (ARK5/NUAK1 [5]; [13]): 93.6% | remaining activity at 30 µM (ARK5/NUAK1 [5]; [14]): 88.9 ± 6.7% | % Enzyme Activity (relative to DMSO controls) (TRKA (G667C)): 101.95% | remaining activity at 30 µM (TRKA (G667C); [11]): 103% | % Enzyme Activity (relative to DMSO controls) (JNK3; [12]): 95.42% | remaining activity at 30 µM (JNK3; [13]): 95.5% | remaining activity at 30 µM (JNK3; [14]): 95.4 ± 0.1% | % Enzyme Activity (relative to DMSO controls) (PI3Kb (p110b/p85a)): 86.58% | remaining activity at 30 µM (PI3Kb (p110b/p85a); [11]): 86.3% | % Enzyme Activity (relative to DMSO controls) (CDK2/cyclin O; [12]): 54.15% | remaining activity at 30 µM (CDK2/cyclin O; [13]): 54.4% | remaining activity at 30 µM (CDK2/cyclin O; [14]): 54.3 ± 0.1% | % Enzyme Activity (relative to DMSO controls) (TRKC; [12]): 102.60% | remaining activity at 30 µM (TRKC; [13]): 108% | remaining activity at 30 µM (TRKC; [14]): 105 ± 3.9% | % Enzyme Activity (relative to DMSO controls) (PKCa; [12]): 62.24% | remaining activity at 30 µM (PKCa; [13]): 63% | remaining activity at 30 µM (PKCa; [14]): 62.6 ± 0.5% | % Enzyme Activity (relative to DMSO controls) (TRKA-TPR): 101.99% | remaining activity at 30 µM (TRKA-TPR; [11]): 106% | % Enzyme Activity (relative to DMSO controls) (AMPK(A1/B1/G1) [6]): 60.04% | remaining activity at 30 µM (AMPK(A1/B1/G1) [7]): 60.9% | % Enzyme Activity (relative to DMSO controls) (TRKA-TPM3): 95.56% | remaining activity at 30 µM (TRKA-TPM3; [11]): 98.2% | % Enzyme Activity (relative to DMSO controls) (TRKB; [12]): 101.29% | remaining activity at 30 µM (TRKB; [13]): 103% | remaining activity at 30 µM (TRKB; [14]): 102 ± 1.3% | % Enzyme Activity (relative to DMSO controls) (AMPK(A2/B1/G1) [8]): 47.50% | remaining activity at 30 µM (AMPK(A2/B1/G1) [9]): 50.8% | % Enzyme Activity (relative to DMSO controls) (EIF2AK3): 70.64% | remaining activity at 30 µM (EIF2AK3; [11]): 70.8% | % Enzyme Activity (relative to DMSO controls) (PI3K (p110a(E542K)/p85a)): 100.20% | remaining activity at 30 µM (PI3K (p110a(E542K)/p85a); [11]): 103% | % Enzyme Activity (relative to DMSO controls) (JNK2 [10]; [12]): 79.67% | remaining activity at 30 µM (JNK2 [10]; [13]): 80.3% | remaining activity at 30 µM (JNK2 [10]; [14]): 80 ± 0.4% | % Enzyme Activity (relative to DMSO controls) (CDK3/cyclin E; [12]): 59.02% | remaining activity at 30 µM (CDK3/cyclin E; [13]): 61.6% | remaining activity at 30 µM (CDK3/cyclin E; [14]): 60.3 ± 1.9%

Source: article PMC7719162, “Positioning of an unprecedented spiro[5.5]undeca ring system into kinase inhibitor space” (Scientific Reports, 2020)
